Assays:
Type in all cases: cell-based
[1] = tested on: PMN's (polymorphonuclear leukocytes); assay: Neutrophil oxidative burst; conditions: Leukocyte, 40 min, read-out: Neutrophil oxidative burst Rel EC50 range, PMN from buffy coats, 40 min at RT, hydroethidine fluorescence; normalized to 5×10^−7 M PEP0005
Outline: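 Human buffy-coat neutrophils (2.5×10^5/well) in HBSS with 0.1% BSA, 5 mM glucose treated with compound premixed with 10 μM hydroethidine for 40 min at RT; fluorescence read at 485/579 nm. Normalized to 5×10^−7 M PEP0005; Rel EC50 is midway between fitted top and bottom, Abs EC50 gives 50% of PEP0005 maximum.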

[2] = tested on: Primary human epidermal keratinocytes, HeKa; assay: HeKa cytokine release (IL-8); conditions: Homo sapiens, HEKa, 6 h, read-out: HeKa cytokine release (IL-8) Rel EC50 range
Outline: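 Seeded cells exposed to compound dilutions for 6 h at 37° C; IL-8 in supernatant quantified by MSD sandwich electrochemiluminescence immunoassay. Effects normalized to positive control (1.5×10^−7 M PEP0005), four-parameter sigmoidal fit; Rel EC50 is concentration midway between fitted top and bottom.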

HeLa cells = assay: Necrosis assay; conditions: Homo sapiens, HeLa, 0.5 h, read-out: HeLa necrosis EC50 range
Outline: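 HeLa cells treated with compound at 10 μM to 400 μM (final) for 30 min at 37° C., viability then measured by PrestoBlue fluorescence (ex 535/em 630 nm). Normalized to 1% DMSO and 400 μM ingenol mebutate controls; AbsEC50 from four-parameter sigmoidal fit.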

SMILES | EC50 [1] | EC50 [2] | EC50 (HeLa cells)
CC1=C[C@]23C(=O)[C@@H](C=C(CO)[C@@H](O)[C@]2(O)[C@H]1OC(=O)N(C)CC1CC1)[C@H]1[C@@H](C[C@H]3C)C1(C)C [Compound 717, Ingenol 3-(N-methyl-N-(cyclopropylmethyl)-carbamate)] | < 20 nM | < 20 nM | > 350000 nM
CC1=C[C@]23C(=O)[C@@H](C=C(CO)[C@@H](O)[C@]2(O)[C@H]1OC(=O)c1c(C)cn(C)c1C)[C@H]1[C@@H](C[C@H]3C)C1(C)C [Compound 541, Ingenol 3-(1,2,4-trimethylpyrrole-3-carboxylate)] | < 20 nM | < 20 nM | 150000 to 350000 nM
CC1=C[C@]23C(=O)[C@@H](C=C(CO)[C@@H](O)[C@]2(O)[C@H]1OC(=O)c1c(C)ccn1C)[C@H]1[C@@H](C[C@H]3C)C1(C)C [Compound 576, Ingenol 3-(1,3-dimethylpyrrole-2-carboxylate)] | < 20 nM | < 20 nM | < 150000 nM
CC1=C[C@]23C(=O)[C@@H](C=C(CO)[C@@H](O)[C@]2(O)[C@H]1OC(=O)N(C)c1cccc(F)c1)[C@H]1[C@@H](C[C@H]3C)C1(C)C [Compound 718, Ingenol 3-(N-(3-fluoro-phenyl)-N-methyl-carbamate)] | < 20 nM | < 20 nM | 150000 to 350000 nM
CC1=C[C@]23C(=O)[C@@H](C=C(CO)[C@@H](O)[C@]2(O)[C@H]1OC(=O)c1c(-c2c(F)cccc2Cl)noc1C)[C@H]1[C@@H](C[C@H]3C)C1(C)C [Compound 501, Ingenol 3-(5-methyl-3-(2-chloro-6-fluoro-phenyl)-isoxazole-4-carboxylate)] | 20 to 100 nM | < 20 nM | < 150000 nM
CC1=C[C@]23C(=O)[C@@H](C=C(CO)[C@@H](O)[C@]2(O)[C@H]1OC(=O)N(C)c1ccccc1)[C@H]1[C@@H](C[C@H]3C)C1(C)C [Compound 705, Ingenol 3-(N-methyl-N-phenyl-carbamate)] | < 20 nM | < 20 nM | 150000 to 350000 nM
CC1=C[C@]23C(=O)[C@@H](C=C(CO)[C@@H](O)[C@]2(O)[C@H]1OC(=O)c1c(C)nsc1C)[C@H]1[C@@H](C[C@H]3C)C1(C)C [Compound 552, Ingenol 3-(3,5-dimethylisothiazole-4-carboxylate)] | 20 to 100 nM | 20 to 100 nM | 150000 to 350000 nM
CC1=C[C@]23C(=O)[C@@H](C=C(CO)[C@@H](O)[C@]2(O)[C@H]1OC(=O)c1c(N2CCCCC2)cnn1C)[C@H]1[C@@H](C[C@H]3C)C1(C)C [Compound 538, Ingenol 3-(2-methyl-4-(1-piperidyl)pyrazole-3-carboxylate)] | < 20 nM | 20 to 100 nM | 150000 to 350000 nM
CC1=C[C@]23C(=O)[C@@H](C=C(CO)[C@@H](O)[C@]2(O)[C@H]1OC(=O)c1ncoc1-c1ccccc1)[C@H]1[C@@H](C[C@H]3C)C1(C)C [Compound 516, Ingenol 3-(5-phenyloxazole-4-carboxylate)] | < 20 nM | 20 to 100 nM | < 150000 nM
CC1=C[C@]23C(=O)[C@@H](C=C(CO)[C@@H](O)[C@]2(O)[C@H]1OC(=O)N1CCCC(C)(C)C1)[C@H]1[C@@H](C[C@H]3C)C1(C)C [Compound 713, Ingenol 3-(3,3-dimethyl-piperidine-1-carboxylate)] | 20 to 100 nM | < 20 nM | 150000 to 350000 nM
CC1=C[C@]23C(=O)[C@@H](C=C(CO)[C@@H](O)[C@]2(O)[C@H]1OC(=O)N(C)C1CCOCC1)[C@H]1[C@@H](C[C@H]3C)C1(C)C [Compound 747, Ingenol 3-(N-methyl-N-(tetrahydropyran-4-yl)-carbamate)] | 20 to 100 nM | > 100 nM | > 350000 nM
CC1=C[C@]23C(=O)[C@@H](C=C(CO)[C@@H](O)[C@]2(O)[C@H]1OC(=O)c1c(C)c2ccccc2n1C)[C@H]1[C@@H](C[C@H]3C)C1(C)C [Compound 571, Ingenol 3-(1,3-dimethylindole-2-carboxylate)] | < 20 nM | < 20 nM | < 150000 nM
CC1=C[C@]23C(=O)[C@@H](C=C(CO)[C@@H](O)[C@]2(O)[C@H]1OC(=O)c1c(C)cn(CC2CC2)c1C)[C@H]1[C@@H](C[C@H]3C)C1(C)C [Compound 588, Ingenol 3-(1-(cyclopropylmethyl)-2,4-dimethyl-pyrrole-3-carboxylate)] | < 20 nM | < 20 nM | < 150000 nM
CC1=C[C@]23C(=O)[C@@H](C=C(CO)[C@@H](O)[C@]2(O)[C@H]1OC(=O)c1ccc(C)n1C)[C@H]1[C@@H](C[C@H]3C)C1(C)C [Compound 583, Ingenol 3-(1,5-dimethylpyrrole-2-carboxylate)] | < 20 nM | < 20 nM | 150000 to 350000 nM
CC1=C[C@]23C(=O)[C@@H](C=C(CO)[C@@H](O)[C@]2(O)[C@H]1OC(=O)c1cc(C(C)(C)C)nn1C)[C@H]1[C@@H](C[C@H]3C)C1(C)C [Compound 533, Ingenol 3-(5-tert-butyl-2-methyl-pyrazole-3-carboxylate)] | < 20 nM | < 20 nM | < 150000 nM
COc1cccc(N(C)C(=O)O[C@H]2C(C)=C[C@]34C(=O)[C@@H](C=C(CO)[C@@H](O)[C@]23O)[C@H]2[C@@H](C[C@H]4C)C2(C)C)c1 [Compound 748, Ingenol 3-(N-methyl-N-(3-methoxy-phenyl)-carbamate)] | < 20 nM | 20 to 100 nM | 150000 to 350000 nM
CCN(C(=O)O[C@H]1C(C)=C[C@]23C(=O)C(C=C(CO)[C@@H](O)[C@]12O)[C@H]1[C@@H](C[C@H]3C)C1(C)C)c1ccccc1 [Compound 734, Ingenol 3-(N-ethyl-N-phenyl-carbamate)] | 20 to 100 nM | < 20 nM | 150000 to 350000 nM
CC1=C[C@]23C(=O)[C@@H](C=C(CO)[C@@H](O)[C@]2(O)[C@H]1OC(=O)c1cc(C)n(C)c1C)[C@H]1[C@@H](C[C@H]3C)C1(C)C [Compound 579, Ingenol 3-(1,2,5-trimethylpyrrole-3-carboxylate)] | < 20 nM | < 20 nM | 150000 to 350000 nM
CCc1noc(C)c1C(=O)O[C@H]1C(C)=C[C@]23C(=O)[C@@H](C=C(CO)[C@@H](O)[C@]12O)[C@H]1[C@@H](C[C@H]3C)C1(C)C [Compound 507, Ingenol 3-(3-ethyl-5-methyl-isoxazole-4-carboxylate)] | < 20 nM | < 20 nM | 150000 to 350000 nM
CC1=C[C@]23C(=O)[C@@H](C=C(CO)[C@@H](O)[C@]2(O)[C@H]1OC(=O)N1CCNc2ccccc21)[C@H]1[C@@H](C[C@H]3C)C1(C)C [Compound 744, Ingenol 3-(3,4-dihydro-2H-quinoxaline-1-carboxylate)] | 20 to 100 nM | 20 to 100 nM | 150000 to 350000 nM
CC1=C[C@]23C(=O)[C@@H](C=C(CO)[C@@H](O)[C@]2(O)[C@H]1OC(=O)c1noc2ccccc12)[C@H]1[C@@H](C[C@H]3C)C1(C)C [Compound 517, Ingenol 3-(1,2-benzoxazole-3-carboxylate)] | 20 to 100 nM | > 100 nM | < 150000 nM

Source: patent US9708286B2, “Ingenol-3-acylates III and ingenol-3-carbamates” (LEO Laboratories Limited, priority 2010, dated 2017)
